Experimental data: patent EP1935984A1 (priority 2006, dated 2008)

Legend:
wild type B.subtilis PB2 = details: concentrations of 30mM and 40mM KSorbate
Experimental: On MB#1 first a test screen was performed on 15mM KSorbate.
The mutants and the wild type PB2 as a control were grown over night in liquid LB-media, pH6.4, 80mM MOPS and 100µg/ml spectinomycin (for the mutants only) at 37°C and 250rpm. The cultures were diluted to an OD600 of 0.2-0.25, grown to OD600=0.5 and again diluted to an OD600=0.020-0.025. At log-phase (OD600=0.2) a 200µl sample was taken, 10°fold to 10^-6fold diluted and ~5µl plated on the same LB-plates, pH6.4, 80mM MOPS containing 0mM, 15mM, 30mM and 40mM KSorbate. After 24h of incubation at 37°C pictures of the plates were taken.

[1] = tested on: mutant strain ATB004 (yhcA); assay: microbe, parasite or virus in culture; details: Bacillus subtilis, pH 6.4, read-out: GI% (growth inhibition)
Experimental: (§1) To get a better understanding of the global response of Bacillus subtilis enduring sorbic acid stress, DNA microarray analysis was performed. We studied changes in gene expression after 10, 20, 30, 40 and 50 min of exposure to potassium sorbate in comparison to an untreated control. […] Changes in gene expression were studied using spotted oligo-arrays. The microarray consisted of 4100 gene specific 65-mer oligonucleotides, representing 4,100 of the 4,106 possible ORFs in B. subtilis (as reported for the B. subtilis genome at http://genolist.pasteur.fr/SubtiList/), spotted in duplo onto glass slides. Total RNA, isolated from the sorbate stressed and control cultures of each time-point, was labelled with the fluorescent dyes Cy5-dUTP and Cy3-dUTP respectively and hybridized onto the same slide. Biologically independent experiments were performed in duplo. […] Since the variation in differential expression measurements depends on the intensity (smaller variation at higher- and larger variation at lower fluorescence intensity levels), we applied an intensity-dependent method to identify differentially expressed genes (Yang et al., (2002)a, Genome Biol., 3: 0062). […] According to the KEGG (Kyoto Encyclopedia of Genes and Genomes, Kaneshisa M, et al (2006), Nucl. Acid Res., 34:354-357) database, this enzyme may also be involved in the degradation and biosynthesis of various metabolites, like arginine, proline, tyrosine, tryptophan and pyrine. […] YhcA is a possible multi-drug efflux pump and comprises of thirteen putative trans-membrane domains. YhcA is both a member of the drug resistance transporter EmrB/QacA subfamily and the major facilitator superfamily. […] We followed the growth by measuring the increase in OD600 and calculated growth inhibition percentages (Table 1). […] Table 1. Susceptibility of a selected mutant strain to sorbic acid stress.
(§2) All Bacillus subtilis strains used in this study are derivatives of the laboratory wild-type strain PB2 (kindly provided by C.W. Price) and are listed in Table 4. Mutant strains ATB002 (ureC), ATB007 (sigL) and ATB008 (sigM) were obtained by transformation of strain PB2 with chromosomal DNA of strains SF168U (Cruz-Ramos H., et al., (1997) J. Bacteriol., 179:3371-3373), QB5505 (Debarbouille M., et al., (1991), Proc. Natl. Acad. Sci., 181: 2059-2066) and AM1447 (Thackray PD and Moir A, (2003), J. Bacteriol., 185: 3491-3498), respectively. To obtain mutant strains ATB001 (fabHB), ATB003 (ycsF), ATB004 (yhcA), ATB005 (yhcB) and ATB006 (yxkJ), the wild-type strain PB2 was transformed with chromosomal DNA of strains YHFBd, YCSFd, YHCAd, YHCBd and YXKJd, respectively, which were all received from the Japanese Consortium for Functional Analysis of the B. subtilis Genome (JAFAN, http://bacillus.genome.ad.jp/). Transformants were selected on LB (Luria-Bertani) agar plates containing appropriate antibiotics, after overnight incubation at 37°C. Depending on the strain, the used antibiotics were chloramphenicol (6 µg/ml), erythromycin (0.5 µg/ml), spectinomycin (100 µg/ml) or kanamycin (10 µg/ml). Isolation of chromosomal DNA was performed according to Ward JB. (Ward JB et al, (1973), J. Bacteriol., 116: 719-726) and transformations were carried out as described by Kunst et al (Kunst F. et al, (1995) J. Bacteriol., 177: 2403-2407).

[2] = tested on: Bacillus subtilis wild-type strain PB2; assay: microbe, parasite or virus in culture
Experimental: as §1, §2

[3] = pH 6.4, read-out: GI% (growth inhibition)

C/C=C/C=C/C(=O)[O-].[K+] [Potassium sorbate, potassium sorbate]
growth of the wild type on sorbate plates (wild type B.subtilis PB2): reduce the growth of the wild type | inhibition at 3000 µM [1]: 45.1% | inhibition at 6000 µM [1]: 50% | inhibition at 15000 µM [1]: 72% | inhibition at 30000 µM [1]: 79.3% | inhibition at 3000 µM [2, 3]: 26.1% | inhibition at 6000 µM [2, 3]: 40.7% | inhibition at 15000 µM [2, 3]: 63.6% | inhibition at 30000 µM [2, 3]: 73.2% | inhibition of growth at 3000 µM ([2]; read-out: reduction in the growth rate): 26%
